For the first assay, the system named is ICR male mice. As to the kind of experiment: Forced swim test (mouse, mFST). The format is in vivo. The settings on record: po; mouse forced swim test, 30 mg/kg, 1 hr; read-out: mFST protection % at administration dose. How it is done:
In order to determine the anti-depressant effect in rodents, the forced swim test was performed with rats and mice. The forced swim test causes an immobile state by forcing an animal to swim in a confined space. It reflects a state of despair giving up evading such a circumstance. ICR male mice (25 g to 30 g) and Wistar male rats (240 g to 260 g) were purchased from Samtako Bio Korea Co. (Korea) and allowed to acclimatize for 1 week before being tested in a controlled animal facility (temperature 22±2° C., humidity 55±5%). The test compound was dissolved in 20% Tween80 and administered orally 60 minutes before testing. The control group was provided with a corresponding vehicle. […] 15 minutes of forced swimming was performed a day before the experiment. On the day of the experiment, the animal was placed in the cylinder 60 minutes after the administration of the compound and was videotaped for 6 minutes. In the recorded videos, time during which the animal placed its head on the water and remained still without movement was measured based on the remaining 4 minutes excluding the first 2 minutes. It was evaluated that the lower the value of the immobile posture time, the greater the anti-depressant action (Reference; Porsolt R D, Le Pichon M. Jalfre M. 1997. Depression: a new animal model sensitive to antidepressant treatments. Nature. April 21; 266(5604):730-2.).
The result was shown as the standard error of measurement (SEM) of mean value t mean value. Behavioral data were analyzed by one-way ANOVA. For statistical significance, a value of <0.05 was taken (***p<0.001, **p=0.001˜0.01, *p=0.01˜0.05). Data management and statistics were performed using the Prism software of Windows version 4 (GraphPad Softward Co., San Diego, CA, USA).
Based on the results of Table 7, the ED50 value of the compound of Example 2 was calculated and shown in Table 7, and after 30 mg/kg and 60 mg/kg of the compounds of the other remaining examples were administered based on TD50 values to perform the forced swim tests, respectively, the administration doses with protected efficacy and protection % at the corresponding administration doses were shown in Table 7.
As to `CC1(C)O[C@@H](COS(N)(=O)=O)[C@H](c2ccc(Cl)cc2Cl)O1` [Example 40, ((4S,5S)-5-(2,4-dichlorophenyl)-2,2-dimethyl-1,3-dioxolan-4-yl)methyl sulfamate], the inhibition in vivo at 30 mg/kg was found to be 64.2%.
The same measure, in the same setting: then `NS(=O)(=O)OC[C@H]1OC2(CCCC2)O[C@@H]1c1c(Cl)cccc1Cl` [Example 57, ((2R,3R)-3-(2,6-dichlorophenyl)-1,4-dioxaspiro[4,4]nonan-2-yl)methyl sulfamate], with 61.6%; and `Cc1ccccc1[C@@H]1OC(C)(C)O[C@H]1COS(N)(=O)=O` [Example 92, ((4S,5S)-5-(2-methylphenyl)-2,2-dimethyl-1,3-dioxolan-4-yl)methyl sulfamate], with 47%; and `CC1(C)O[C@@H](COS(N)(=O)=O)[C@H](Cc2ccccc2)O1` [Example 122, ((4S,5S)-5-benzyl-2,2-dimethyl-1,3-dioxolan-4-yl)methyl sulfamate], with 46.9%.
On the same count and under the same terms, then `CC1(C)O[C@@H](CCOS(N)(=O)=O)[C@H](c2ccccc2)O1` [Example 130, 2-((4S,5S)-5-phenyl-2,2-dimethyl-1,3-dioxolan-4-yl)ethyl sulfamate], with 57.5%; and `NS(=O)(=O)OCC[C@@H]1OC2(CCCC2)O[C@H]1c1ccccc1` [Example 134, 2-((2S,3S)-3-phenyl-1,4-dioxaspiro[4,4]nonan-2-yl)ethyl sulfamate], with 63%; and `NS(=O)(=O)OCC[C@@H]1OC2(CCCC2)O[C@H]1c1ccccc1Cl` [Example 158, 2-((2S,3S)-3-(2-chlorophenyl)-1,4-dioxaspiro[4,4]nonan-2-yl)ethyl sulfamate], with 51.6%.

Staying with this assay, now noted: po; mouse forced swim test, 60 mg/kg, 1 hr; read-out: mFST protection % at administration dose.
Regarding `NS(=O)(=O)OC[C@@H]1OC2(CCCC2)O[C@H]1c1ccccc1Cl` [Example 10, ((2S,3S)-3-(2-chlorophenyl)-1,4-dioxaspiro[4,4]nonan-2-yl)methyl sulfamate], the inhibition in vivo at 60 mg/kg is 19%.
As for `Nc1ccccc1[C@@H]1OC2(CCCC2)O[C@H]1COS(N)(=O)=O` [Example 72, ((2S,3S)-3-(2-aminophenyl)-1,4-dioxaspiro[4,4]nonan-2-yl)methyl sulfamate], the inhibition in vivo at 60 mg/kg amounted to 54.3%.
As for `NS(=O)(=O)OC[C@@H]1OC(=O)O[C@H]1c1ccccc1[N+](=O)[O-]` [Example 90, ((4S,5S)-5-(2-nitrophenyl)-2-oxo-1,3-dioxolan-4-yl)methyl sulfamate], the inhibition in vivo at 60 mg/kg was 60.4%.
Same read-out and setting: then `CC1(C)O[C@@H](COS(N)(=O)=O)[C@H](c2ccccc2)O1` [Example 106, ((4S,5S)-5-phenyl-2,2-dimethyl-1,3-dioxolan-4-yl)methyl sulfamate], with 24.5%.
The same measure, in the same setting: then `NS(=O)(=O)OC[C@@H]1OC2(CCCC2)O[C@H]1c1ccccc1` [Example 110, ((2S,3S)-3-phenyl-1,4-dioxaspiro[4,4]nonan-2-yl)methyl sulfamate], with 39.3%.
Same read-out and setting: then `CC1(C)O[C@@H](CCOS(N)(=O)=O)[C@H](Cc2ccccc2)O1` [Example 114, 2-((4S,5S)-5-benzyl-2,2-dimethyl-1,3-dioxolan-4-yl)ethyl sulfamate], with 36.4%; and `NS(=O)(=O)OCC[C@@H]1OC2(CCCC2)O[C@H]1Cc1ccccc1` [Example 118, 2-((2S,3S)-3-benzyl-1,4-dioxaspiro[4,4]nonan-2-yl)ethyl sulfamate], with 35.3%; and `NS(=O)(=O)OC[C@@H]1OC2(CCCC2)O[C@H]1Cc1ccccc1` [Example 126, ((2S,3S)-3-benzyl-1,4-dioxaspiro[4,4]nonan-2-yl)methyl sulfamate], with 43%.
Consider `CC1(C)O[C@@H](CCOS(N)(=O)=O)[C@H](Cc2ccccc2Cl)O1` [Example 138, 2-((4S,5S)-5-(2-chlorobenzyll)-2,2-dimethyl-1,3-dioxolan-4-yl)ethyl sulfamate], for which the inhibition in vivo at 60 mg/kg is 60.2%.
The same measure, in the same setting: then `NS(=O)(=O)OCC[C@@H]1OC2(CCCC2)O[C@H]1Cc1ccccc1Cl` [Example 142, 2-((2S,3S)-3-(2-chlorobenzyl)-1,4-dioxaspiro[4,4]nonan-2-yl)ethyl sulfamate], with 45.9%.
On to `CC1(C)O[C@@H](COS(N)(=O)=O)[C@H](Cc2ccccc2Cl)O1` [Example 146, ((4S,5S)-5-(2-chlorobenzyl)-2,2-dimethyl-1,3-dioxolan-4-yl)methyl sulfamate], for which the inhibition in vivo at 60 mg/kg is 65.1%.
Still for that read-out and setting: then `NS(=O)(=O)OC[C@@H]1OC2(CCCC2)O[C@H]1Cc1ccccc1Cl` [Example 150, ((2S,3S)-3-(2-chlorobenzyl)-1,4-dioxaspiro[4,4]nonan-2-yl)methyl sulfamate], with 56.9%; and `CC1(C)O[C@@H](CCOS(N)(=O)=O)[C@H](c2ccccc2Cl)O1` [Example 154, 2-((4S,5S)-5-(2-chlorophenyl)-2,2-dimethyl-1,3-dioxolan-4-yl)ethyl sulfamate], with 38.9%; and `CC1(C)O[C@@H](COS(N)(=O)=O)[C@H](c2sc(Cl)nc2Cl)O1` [Example 164, ((4S,5R)-5-(2,4-dichlorothiazol-5-yl)-2,2-dimethyl-1,3-dioxolan-4-yl)methyl sulfamate], with 44.9%.
For the compound `CC1(C)O[C@@H](COS(N)(=O)=O)[C@H](c2cnc(Cl)s2)O1` [Example 166, ((4R,5S)-5-(2-chlorothiazol-5-yl)-2,2-dimethyl-1,3-dioxolan-4-yl)methyl-sulfamate], the inhibition in vivo at 60 mg/kg came out at 53.3%.

Values taken from patent publication US11896593B2, “Sulfamate derivative compounds for use in treating or alleviating a psychiatric disorder” (Bio-Pharm Solutions Co., Ltd., priority 2020, dated 2024).
